A word on the IC50: it is the concentration needed to halve the response being measured.

The source of these data is patent publication US20210038607A1, “OXADIAZOLYLTHIOPHENE DERIVATIVES USEFUL AS HISTONE DEACETYLASE INHIBITORS” (Karus Therapeutics Limited, priority 2018, published 2021).

For test [1], the target named is T1, Recombinant human HDAC6 (Homo sapiens, UniProt Q9UBN7).
T1 construct: full length, MW=159 kDa; GST (N); host or cells: Sf9 insect cells (baculovirus)
T1 sequence (Q9UBN7 1-1215): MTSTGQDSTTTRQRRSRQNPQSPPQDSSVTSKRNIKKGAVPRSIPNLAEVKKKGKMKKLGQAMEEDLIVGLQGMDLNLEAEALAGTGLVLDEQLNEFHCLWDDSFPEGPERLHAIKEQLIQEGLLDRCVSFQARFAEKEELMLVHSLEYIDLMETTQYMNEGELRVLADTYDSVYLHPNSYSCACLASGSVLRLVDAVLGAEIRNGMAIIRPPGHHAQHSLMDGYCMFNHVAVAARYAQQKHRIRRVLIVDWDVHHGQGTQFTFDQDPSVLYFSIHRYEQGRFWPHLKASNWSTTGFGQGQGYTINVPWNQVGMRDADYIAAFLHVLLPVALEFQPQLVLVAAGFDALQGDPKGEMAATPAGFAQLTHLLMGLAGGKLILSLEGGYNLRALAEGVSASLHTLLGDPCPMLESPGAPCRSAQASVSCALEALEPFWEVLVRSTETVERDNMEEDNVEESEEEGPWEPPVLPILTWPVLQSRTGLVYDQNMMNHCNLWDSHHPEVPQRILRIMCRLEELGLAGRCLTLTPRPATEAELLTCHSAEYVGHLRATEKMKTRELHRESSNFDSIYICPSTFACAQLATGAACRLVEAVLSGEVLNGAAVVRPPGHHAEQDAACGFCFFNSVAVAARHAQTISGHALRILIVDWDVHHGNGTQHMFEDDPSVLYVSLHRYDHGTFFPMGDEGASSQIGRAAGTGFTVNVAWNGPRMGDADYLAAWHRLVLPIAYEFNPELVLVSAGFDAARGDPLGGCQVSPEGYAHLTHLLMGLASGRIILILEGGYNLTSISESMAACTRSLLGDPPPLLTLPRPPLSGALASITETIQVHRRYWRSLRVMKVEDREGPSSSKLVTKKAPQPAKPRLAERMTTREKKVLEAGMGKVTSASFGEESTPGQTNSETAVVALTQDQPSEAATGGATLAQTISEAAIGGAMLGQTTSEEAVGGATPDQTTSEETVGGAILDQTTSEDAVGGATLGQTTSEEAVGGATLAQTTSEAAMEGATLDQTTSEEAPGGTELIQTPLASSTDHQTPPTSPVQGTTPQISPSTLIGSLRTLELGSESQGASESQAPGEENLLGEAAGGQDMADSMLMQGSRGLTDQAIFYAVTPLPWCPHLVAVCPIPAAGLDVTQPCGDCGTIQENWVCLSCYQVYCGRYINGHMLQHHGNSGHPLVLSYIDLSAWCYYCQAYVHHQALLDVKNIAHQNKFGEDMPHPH
The experiment in a line: HDAC6 biochemical assay, AMC-labeled peptide substrate. The following applies: HDAC6; read-out: HDAC Isoform IC50 (nM) 6. The procedure, abridged: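 Two-step fluorogenic read-out: enzyme deacetylates 50 μM RHKK(Ac)AMC for 1 h at 30° C in pH 8.0 Tris buffer with BSA and 1% DMSO, then developer cleavage gives signal at Ex 360/Em 460. Enzyme: 0.3 ng/ul recombinant full-length human HDAC6, GST-tagged, Sf9-expressed.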

Test [2] deals with T2, Human HDAC4 (Homo sapiens, UniProt P56524).
T2 construct: amino acids 627-1085 with N-terminal GST tag; GST (N); host or cells: baculovirus expression system
The experiment in a line: HDAC4 biochemical assay, class IIa-specific substrate. As to conditions: read-out: HDAC Isoform IC50 (nM) 4. The procedure, abridged:
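Two-step fluorogenic read-out: deacetylated BOC-Lys(trifluoroacetyl)-AMC (50 μM) was digested by developer and measured at Ex/Em 360/460. Deacetylation by 0.004 ng/ul HDAC4 (aa 627-1085, N-terminal GST) ran 30 min at room temperature, pH 8.0 Tris buffer, 1 mg/mL BSA, 1% DMSO.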

Test [3] addresses T3, Human HDAC9 (Homo sapiens, UniProt Q9UKV0).
T3 construct: amino acids 604-1066 with C-terminal His tag; His (C); host or cells: baculovirus expression system
The experiment in a line: HDAC9 biochemical assay, class IIa-specific substrate. As to conditions: read-out: HDAC Isoform IC50 (nM) 9. The procedure, abridged:
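HDAC9 residues 604-1066 (C-terminal His tag, baculovirus-expressed) at 0.06 ng/ul with 50 μM class IIa substrate Boc-Lys(trifluoroacetyl)-AMC in Tris-HCl pH 8.0 buffer with BSA and 1% DMSO. 30 min at room temperature, then developer added; fluorescence read at 360/460 nm Ex/Em.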

In test [4] the target is T4, Human HDAC1 (Homo sapiens, UniProt Q13547).
T4 construct: full length with C-terminal His-tag and C-terminal FLAG-tag; His (C); FLAG (C); host or cells: baculovirus expression system
The experiment in a line: HDAC1 biochemical assay, AMC-labeled peptide substrate. As to conditions: read-out: HDAC Isoform IC50 (nM) 1. The method, boiled down:
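Two-step fluorogenic read: HDAC1 deacetylates 50 μM acetyl-lysine AMC peptide RHKK(Ac)AMC for 1 h at 30° C (pH 8.0, 1% DMSO, with compound), then developer digests the product for fluorescence at Ex/Em 360/460. Enzyme is full-length human, His/FLAG-tagged, insect-cell expressed, at 0.3 ng/ul.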

Test [5] has as its target T5, Human HDAC7 (Homo sapiens, UniProt Q8WUI4).
T5 construct: (a.a. 518-end) with N-terminal GST tag; GST (N); host or cells: baculovirus expression system
T5 sequence (Q8WUI4 518-952 limits assumed): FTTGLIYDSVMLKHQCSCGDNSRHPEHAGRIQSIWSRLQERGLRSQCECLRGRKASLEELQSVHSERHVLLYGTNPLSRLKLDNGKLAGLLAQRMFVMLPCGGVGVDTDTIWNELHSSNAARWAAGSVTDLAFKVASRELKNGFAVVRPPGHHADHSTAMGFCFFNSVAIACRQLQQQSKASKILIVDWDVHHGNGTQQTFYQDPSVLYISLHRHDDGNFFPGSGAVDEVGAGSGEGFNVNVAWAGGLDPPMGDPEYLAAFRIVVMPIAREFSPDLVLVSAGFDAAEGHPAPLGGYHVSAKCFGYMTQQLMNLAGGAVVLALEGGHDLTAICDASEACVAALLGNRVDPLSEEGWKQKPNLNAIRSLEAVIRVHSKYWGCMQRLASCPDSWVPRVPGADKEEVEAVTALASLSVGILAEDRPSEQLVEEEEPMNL
The experiment in a line: HDAC7 biochemical assay, class IIa-specific substrate. As to conditions: read-out: HDAC Isoform IC50 (nM) 7. The method, boiled down:
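Two-step fluorogenic readout: class IIa-selective trifluoroacetyl-lysine AMC substrate (50 μM) deacetylated by N-terminal GST-HDAC7 fragment (0.001 ng/ul), then digested by developer, Ex/Em 360/460. Reaction: 30 min, room temperature, Tris-HCl pH 8.0, NaCl/KCl/MgCl2, 1 mg/mL BSA, 1% DMSO.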

For test [6], the target named is T6, Human HDAC5 (Homo sapiens, UniProt Q9UQL6).
T6 construct: full length with C-terminal His tag, MW=51.1 kDa; His (C); host or cells: baculovirus expression system
The experiment in a line: HDAC5 biochemical assay, class IIa-specific substrate. The following applies: read-out: HDAC Isoform IC50 (nM) 5. The method, boiled down:
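Two-step fluorogenic read-out: deacetylated trifluoroacetyl-lysine AMC substrate (50 μM) digested by developer, measured at Ex/Em 360/460. Deacetylation step: 0.05 ng/ul His-tagged full-length baculoviral enzyme with compound, 30 min, room temperature, pH 8.0 Tris with 1 mg/mL BSA and 1% DMSO.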

T6 sequence (Q9UQL6 656-1122 limits assumed): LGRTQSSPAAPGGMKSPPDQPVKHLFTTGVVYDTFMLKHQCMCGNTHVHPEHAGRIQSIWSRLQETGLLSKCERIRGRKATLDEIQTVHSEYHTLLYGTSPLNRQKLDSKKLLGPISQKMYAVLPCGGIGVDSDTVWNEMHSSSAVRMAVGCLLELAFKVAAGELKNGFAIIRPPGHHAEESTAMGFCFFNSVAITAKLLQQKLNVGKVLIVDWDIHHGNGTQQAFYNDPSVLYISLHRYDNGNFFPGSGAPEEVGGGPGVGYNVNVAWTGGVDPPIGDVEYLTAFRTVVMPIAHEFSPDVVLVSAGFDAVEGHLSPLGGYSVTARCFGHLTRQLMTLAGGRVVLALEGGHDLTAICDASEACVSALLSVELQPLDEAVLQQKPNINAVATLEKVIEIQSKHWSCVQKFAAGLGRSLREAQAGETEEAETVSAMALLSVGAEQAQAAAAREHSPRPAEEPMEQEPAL
T4 sequence (Q13547 whole entry): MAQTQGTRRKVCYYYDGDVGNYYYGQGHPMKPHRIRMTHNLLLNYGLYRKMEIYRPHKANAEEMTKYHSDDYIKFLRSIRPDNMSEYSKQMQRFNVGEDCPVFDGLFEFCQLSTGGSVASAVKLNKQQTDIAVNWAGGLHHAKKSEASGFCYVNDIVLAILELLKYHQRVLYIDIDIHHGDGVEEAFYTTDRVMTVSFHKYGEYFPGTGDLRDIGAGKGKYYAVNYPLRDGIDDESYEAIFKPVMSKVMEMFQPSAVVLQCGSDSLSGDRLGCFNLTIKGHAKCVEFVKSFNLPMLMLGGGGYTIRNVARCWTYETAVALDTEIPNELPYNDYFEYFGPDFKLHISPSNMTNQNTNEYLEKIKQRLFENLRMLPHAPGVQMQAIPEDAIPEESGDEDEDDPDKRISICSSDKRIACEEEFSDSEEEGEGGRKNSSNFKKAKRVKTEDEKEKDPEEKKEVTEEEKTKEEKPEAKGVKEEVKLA
T3 sequence (Q9UKV0 604-1066 isoform Q9UKV0-5): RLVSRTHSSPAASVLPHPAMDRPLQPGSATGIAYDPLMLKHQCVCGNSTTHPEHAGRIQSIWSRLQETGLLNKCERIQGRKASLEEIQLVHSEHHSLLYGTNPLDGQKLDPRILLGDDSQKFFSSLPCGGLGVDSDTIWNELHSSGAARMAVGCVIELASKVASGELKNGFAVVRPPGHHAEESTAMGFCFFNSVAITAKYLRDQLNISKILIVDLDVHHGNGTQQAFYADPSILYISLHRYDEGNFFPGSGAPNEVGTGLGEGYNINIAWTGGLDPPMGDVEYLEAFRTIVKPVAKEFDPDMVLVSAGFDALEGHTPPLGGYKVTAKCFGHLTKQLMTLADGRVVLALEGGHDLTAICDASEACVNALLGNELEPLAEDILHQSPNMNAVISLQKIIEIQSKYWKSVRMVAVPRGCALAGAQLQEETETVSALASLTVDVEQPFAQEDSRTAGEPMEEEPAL
T2 sequence (P56524 627-1084 limits assumed): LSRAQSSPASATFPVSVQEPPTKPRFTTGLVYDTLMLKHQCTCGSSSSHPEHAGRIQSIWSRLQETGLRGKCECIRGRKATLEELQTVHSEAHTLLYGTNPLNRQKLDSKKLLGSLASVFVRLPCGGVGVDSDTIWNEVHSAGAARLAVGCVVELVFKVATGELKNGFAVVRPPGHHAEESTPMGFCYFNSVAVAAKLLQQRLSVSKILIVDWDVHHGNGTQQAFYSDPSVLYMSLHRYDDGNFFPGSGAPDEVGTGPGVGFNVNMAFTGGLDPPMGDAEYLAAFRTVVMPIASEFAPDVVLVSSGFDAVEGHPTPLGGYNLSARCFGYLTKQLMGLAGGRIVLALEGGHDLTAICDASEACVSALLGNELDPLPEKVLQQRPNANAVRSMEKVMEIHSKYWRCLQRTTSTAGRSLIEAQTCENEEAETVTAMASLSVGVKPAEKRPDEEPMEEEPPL

On to `FC(F)(F)c1cnnc(N(Cc2ccc(-c3noc(C(F)(F)F)n3)s2)c2ccncn2)c1` [Example EL, N-(Pyrimidin-4-yl)-5-(trifluoromethyl)-N-({5-[5-(trifluoromethyl)-1,2,4-oxadiazol-3-yl]thiophen-2-yl}methyl)pyridazin-3-amine], for which the concentration for half-maximal inhibition (IC50) is at most 1000 nM in test [1]; at most 10000 nM in test [2]; at most 10000 nM in test [3]; over 10000 nM in test [4]; at most 10000 nM in test [5]; at most 1000 nM in test [6].
Turning to `Cc1cncc(N(Cc2ccc(-c3noc(C(F)(F)F)n3)s2)c2cc(C(F)(F)F)cnn2)n1` [Example EM, N-(6-Methylpyrazin-2-yl)-5-(trifluoromethyl)-N-({5-[5-(trifluoromethyl)-1,2,4-oxadiazol-3-yl]thiophen-2-yl}methyl)pyridazin-3-amine], the IC50 in test [1] is at most 1000 nM; in test [2], at most 10000 nM; in test [3], over 10000 nM; in test [4] it was over 10000 nM; in test [5] it was at most 10000 nM; in test [6], at most 10000 nM.
On to `Cc1cnc(N(Cc2ccc(-c3noc(C(F)(F)F)n3)s2)c2cc(C(F)(F)F)cnn2)cn1` [Example EO, N-(5-Methylpyrazin-2-yl)-5-(trifluoromethyl)-N-({5-[5-(trifluoromethyl)-1,2,4-oxadiazol-3-yl]thiophen-2-yl}methyl)pyridazin-3-amine], for which the IC50 in test [1] was at most 10000 nM; in test [2], at most 10000 nM; in test [3], over 10000 nM; in test [4], over 10000 nM; in test [5] it was at most 10000 nM; in test [6], at most 10000 nM.
Consider `COc1cnc(N(Cc2ccc(-c3noc(C(F)(F)F)n3)s2)c2cc(C(F)(F)F)cnn2)cn1` [Example EP, N-(5-Methoxypyrazin-2-yl)-5-(trifluoromethyl)-N-({5-[5-(trifluoromethyl)-1,2,4-oxadiazol-3-yl]thiophen-2-yl}methyl)pyridazin-3-amine], for which the concentration for half-maximal inhibition (IC50) was at most 10000 nM in test [1]; at most 10000 nM in test [2]; over 10000 nM in test [3]; over 10000 nM in test [4]; at most 10000 nM in test [5]; at most 10000 nM in test [6].
As to `FC(F)(F)c1cnnc(N(Cc2ccc(-c3noc(C(F)(F)F)n3)s2)c2cncnc2)c1` [Example EQ, N-(Pyrimidin-5-yl)-5-(trifluoromethyl)-N-({5-[5-(trifluoromethyl)-1,2,4-oxadiazol-3-yl]thiophen-2-yl}methyl)pyridazin-3-amine], the half-maximal inhibitory concentration (IC50) in test [1] is at most 1000 nM; in test [2] it was at most 10000 nM; in test [3], at most 10000 nM; in test [4], over 10000 nM; in test [5], at most 10000 nM; in test [6], at most 10000 nM.
As to `FC(F)(F)c1cnnc(N(Cc2ccc(-c3noc(C(F)(F)F)n3)s2)c2ccc(C(F)(F)F)nn2)c1` [Example EV, 6-(Trifluoromethyl)-N-({5-[5-(trifluoromethyl)-1,2,4-oxadiazol-3-yl]thiophen-2-yl}methyl)-N-[5-(trifluoromethyl)pyridazin-3-yl]pyridazin-3-amine], the IC50 in test [1] is at most 10000 nM; in test [2] it was at most 10000 nM; in test [3] it was over 10000 nM; in test [4] it was over 10000 nM; in test [5] it was at most 10000 nM; in test [6] it was at most 10000 nM.
For the molecule `FC(F)(F)c1cnnc(N(Cc2ccc(-c3noc(C(F)(F)F)n3)s2)c2ccc(N3CCCC3)nn2)c1` [Example EW, 6-(Pyrrolidin-1-yl)-N-({5-[5-(trifluoromethyl)-1,2,4-oxadiazol-3-yl]thiophen-2-yl}methyl)-N-[5-(trifluoromethyl)pyridazin-3-yl]pyridazin-3-amine], the IC50 in test [1] was at most 10000 nM; in test [2], at most 10000 nM; in test [3], at most 10000 nM; in test [4] it was over 10000 nM; in test [5], at most 10000 nM; in test [6] it was at most 10000 nM.
Take `FC(F)(F)c1cnnc(N(Cc2ccc(-c3noc(C(F)(F)F)n3)s2)c2ccc(N3CCOCC3)nn2)c1` [Example EX, 6-(Morpholin-4-yl)-N-({5-[5-(trifluoromethyl)-1,2,4-oxadiazol-3-yl]thiophen-2-yl}methyl)-N-[5-(trifluoromethyl)pyridazin-3-yl]pyridazin-3-amine]: the IC50 in test [1] is at most 1000 nM; in test [2], at most 10000 nM; in test [3] it was at most 10000 nM; in test [4], at most 10000 nM; in test [5], at most 10000 nM; in test [6], at most 10000 nM.
As to `Fc1cc(-c2noc(C(F)(F)F)n2)sc1CN(c1cnccn1)c1cnccn1` [Example EY, N-({3-Fluoro-5-[5-(trifluoromethyl)-1,2,4-oxadiazol-3-yl]thiophen-2-yl}methyl)-N-(pyrazin-2-yl)pyrazin-2-amine], the concentration for half-maximal inhibition (IC50) in test [1] was at most 500 nM; in test [2], at most 10000 nM; in test [3], at most 10000 nM; in test [4], over 10000 nM; in test [5] it was at most 1000 nM; in test [6], at most 500 nM.
On to `FC(F)(F)c1nc(-c2ccc(CN(c3cnccn3)c3cnsn3)s2)no1` [Example S, N-(1,2,5-Thiadiazol-3-yl)-N-({5-[5-(trifluoromethyl)-1,2,4-oxadiazol-3-yl]thiophen-2-yl}methyl)pyrazin-2-amine], for which the half-maximal inhibitory concentration (IC50) in test [1] was at most 10000 nM; in test [2], at most 1000 nM; in test [3], at most 10000 nM; in test [4], over 10000 nM; in test [5], at most 10000 nM; in test [6] it was at most 10000 nM.
